Reference: patent US20260041649A1, “ANTI-INFLAMMATORY AGENT” (WATANABE OYSTER LABORATORY, CO., LTD., priority 2023, published 2026)

System: mouse macrophage RAW264.7 cells
Test: Western blotting of proteins related to proliferation
Format: cell-based
Settings: DHMBA 10 μM, 3 days
Method: RAW264.7 cells (1×10^6 cells/10 ml of medium in 100 mm dish) were cultured for 3 days in a DMEM culture medium containing 10% FBS, 1% P/S, and 1% fungizone in the control group (1% ethanol; 0 μM DHMBA as final concentration) and the DHMBA treated group (10 μM). After the culture, cells were removed from the dish using a cell scraper in a cell lysis buffer containing protease inhibitors. Forty micrograms of supernatant protein per lane were separated by electrophoresis on a 12% SDS-PAGE gel, transferred onto a […], and probed by Western blotting with antibodies against various proteins. […] In FIG. 3(B), band intensities are shown as fold increase over the control. Data are presented as the mean±SD of values obtained from 4 dishes using different cell preparations. *: Significant difference (p<0.001) between the control group and the DHMBA-treated group. Statistical analysis was performed using 1-way ANOVA with Tukey-Kramer post-test.
RAW264.7 cells (1×10^6 cells/10 ml of 100 mm dish) were cultured for 3 days in 10% FBS, 1% P/S (1% ethanol), or in the DHMBA-treated group (10 μM). After the culture, the dishes were washed with cold PBS (10 ml) to remove floating and dead cells. The cell lysis buffer (Cell Signaling Technology, Inc., Danvers, MA, USA) supplemented with protease/protein phosphatase inhibitor (Roche Diagnostics, Indianapolis, IN, USA) was added to the cells to collect cell lysates of the adherent cells as described in the previous study. The cell lysates were centrifuged at 17,000×g, 4° C. for 10 min. Protein concentrations in the supernatants were measured using Bio-Rad Protein Assay Dye (Bio-Rad Laboratories, Inc., Hercules, CA, USA) with bovine serum albumin as a standard. The cell lysates were stored at −80° C. until use. The supernatant proteins (40 μg/lane) were separated by SDS-polyacrylamide gel electrophoresis (12% SDS-PAGE) and transferred to a PVDF membrane. The transferred membranes were immunoblotted with specific antibodies against various proteins, including Ras (cat. no. 3339, rabbit), Akt (cat. no. 9272, rabbit), mitogen-activated protein kinase (MAPK; cat. no. 4695, rabbit), phosphorylated MAPK (cat. no. 4370, rabbit), mechanistic target of rapamycin (mTOR; cat. no. 4517, mouse), Rb (cat. no. 9309, mouse), p21 (cat. no. 2947, rabbit), STAT3 (cat. no. 12640, rabbit), COX-1 (cat. no. 48415), COX-2 (cat. no. 4842), and β-actin (cat. no. 3700, mouse), all of which were purchased from Cell Signaling Technology, Inc. (Danvers, MA, USA). Specific antibodies for p53 (cat. no. sc-126, mouse) and NF-κB p65 (cat. no. sc-109, rabbit) were purchased from Santa Cruz Biotechnology Inc. (Santa Cruz, CA, USA). Additionally, rabbit anti-regucalcin antibody (cat. no. HPA029103, rabbit) was obtained from Sigma-Aldrich. Target proteins were incubated overnight at 4° C. with one of the above primary antibodies (1:1,000). After incubation, the membranes were further incubated with horseradish peroxidase-conjugated secondary antibodies (Santa Cruz Biotechnology Inc., cat. no. sc-2005 (mouse) or sc-2305 (rabbit); dilution 1:2000) for 60 min at room temperature, and protein bands were detected using chemiluminescence substrates (cat. no. 34577, Thermo Fisher Scientific Inc., Rockford, IL, USA) on X-ray films. From 4 independent experiments, a total of 3 or 4 films with separate membranes were scanned with Epson Perfection 1660 Photo scanner to quantify the bands using Image J2 software (National Institutes of Health, Bethesda, MD, USA). In addition, for immunoblotting using additional antibodies, the membranes were incubated at room temperature for 30 min with Restore (registered trademark) Western Blot Stripping Buffer (cat. no. 21059; Thermo Fisher Scientific Inc., Rockford, IL, USA) to remove attached chemiluminescence substrates (Thermo Fisher Scientific Inc.,) and were used to measure other protein molecules.

Structure (SMILES): COc1c(O)cc(CO)cc1O [DHMBA, 3,5-dihydroxy-4-methoxybenzyl alcohol]
- expression level of Rb: increased
- expression level of p21: increased
- expression level of p53: increased
- expression level of regucalcin: increased
- level of Akt: decreased
- level of MAPK: decreased
- level of PI3 kinase: decreased
- level of Ras: decreased
- level of mTOR: decreased
- level of phospho-MAPK: decreased
